We go through 2 substances from patent publication US20090143311A1, “Compositions comprising tripeptides inhibiting ace” (priority 2005, published 2009).

The subject of experiment [1] is ACE. Kind of experiment: at-line ACE inhibition assay. Type of experiment: biochemical. As to conditions: HHL substrate, PBS pH 7.4, 60 minutes at 50° C. From the text:
The presence of novel ACE inhibiting peptides in CDBAP was investigated by using 2-dimensional-chromatographic-separation combined with an at-line ACE inhibition assay and mass spectrometry for identification. In the first analysis the peptide mixture was separated on an ODS3 liquid chromatography (LC) column and ACE inhibition profiles were generated from the various fractions obtained. In a second analysis the fractions from the first column showing a high ACE inhibition were further separated on a Biosuite LC column using a different gradient profile. The fractions collected from this second column were split into two parts: one part was used for the at-line ACE inhibition measurement while the other part was subjected to MS and MS-MS analysis to identify the peptides present. […]
The 96 well plate was then analysed on a flash-HPLC-column. […] Hippuric acid (H) and HHL were monitored at 280 nm. The peak heights of H and HHL were measured and the ACE inhibition (ACEI) of each fraction was calculated according to the equation: […]
The Degree of Cleavage was calculated by expressing the peak height of H as a fraction of the sum of the peak heights of H and HHL.

The test system of experiment [2] is ACE. Kind of experiment: modified Matsui ACE inhibition assay. Type of experiment: biochemical. How it is done:
Quantification of MAP and ITP in the various samples was performed on a Micromass Quattro II MS instrument operated in the positive electrospray, multiple reaction monitoring mode. The HPLC method used was similar to the one described above. The MS settings (ESI+) were as follows: cone voltage 37 V, capillary voltage 4 kV, drying gas nitrogen at 300 l/h. Source and nebulizer temperature: 100° C. and 250° C., respectively. The synthesized peptides were used to prepare a calibration line using the precursor ion 318.1 and the summed product ions […] for MAP and using the precursor ion 320.2 and the summed product ions […] for ITP. According to these analyses the novel ACE inhibiting tripeptides MAP and ITP are present in the CDBAP product in quantities corresponding with 2.9 mg MAP/gram CDBAP or 4.8 mg MAP/gram protein in CDBAP and 0.9 mg ITP/gram CDBAP en 1.4 mg ITP/gram protein in CDBAP. […]
Each one of the four samples contained 75 μl 3 mM hippuryl histidine leucine (Hip-His-Leu, Sigma) dissolved in a 250 mM borate solution containing 200 mM NaCl, pH 8.3. […] After incubation for 20 min. at 37° C., 4 ml 4 mM Na2SO3 in 0.2 M NaH2PO4 was added and the light absorbance at 416 nm was measured with UV/Vis spectrophotometer (Shimadzu UV-1601 with a CPS controller, Netherlands). […]

The target in experiment [3] is ACE (Homo sapiens, UniProt P12821). The conditions noted are these: literature (Nakamura 1995; Aryoshi 1993); read-out: IC50 values reported earlier; cited from earlier work.
Sequence of ACE (Homo sapiens, UniProt P12821) (P12821 30-1306, species assumed): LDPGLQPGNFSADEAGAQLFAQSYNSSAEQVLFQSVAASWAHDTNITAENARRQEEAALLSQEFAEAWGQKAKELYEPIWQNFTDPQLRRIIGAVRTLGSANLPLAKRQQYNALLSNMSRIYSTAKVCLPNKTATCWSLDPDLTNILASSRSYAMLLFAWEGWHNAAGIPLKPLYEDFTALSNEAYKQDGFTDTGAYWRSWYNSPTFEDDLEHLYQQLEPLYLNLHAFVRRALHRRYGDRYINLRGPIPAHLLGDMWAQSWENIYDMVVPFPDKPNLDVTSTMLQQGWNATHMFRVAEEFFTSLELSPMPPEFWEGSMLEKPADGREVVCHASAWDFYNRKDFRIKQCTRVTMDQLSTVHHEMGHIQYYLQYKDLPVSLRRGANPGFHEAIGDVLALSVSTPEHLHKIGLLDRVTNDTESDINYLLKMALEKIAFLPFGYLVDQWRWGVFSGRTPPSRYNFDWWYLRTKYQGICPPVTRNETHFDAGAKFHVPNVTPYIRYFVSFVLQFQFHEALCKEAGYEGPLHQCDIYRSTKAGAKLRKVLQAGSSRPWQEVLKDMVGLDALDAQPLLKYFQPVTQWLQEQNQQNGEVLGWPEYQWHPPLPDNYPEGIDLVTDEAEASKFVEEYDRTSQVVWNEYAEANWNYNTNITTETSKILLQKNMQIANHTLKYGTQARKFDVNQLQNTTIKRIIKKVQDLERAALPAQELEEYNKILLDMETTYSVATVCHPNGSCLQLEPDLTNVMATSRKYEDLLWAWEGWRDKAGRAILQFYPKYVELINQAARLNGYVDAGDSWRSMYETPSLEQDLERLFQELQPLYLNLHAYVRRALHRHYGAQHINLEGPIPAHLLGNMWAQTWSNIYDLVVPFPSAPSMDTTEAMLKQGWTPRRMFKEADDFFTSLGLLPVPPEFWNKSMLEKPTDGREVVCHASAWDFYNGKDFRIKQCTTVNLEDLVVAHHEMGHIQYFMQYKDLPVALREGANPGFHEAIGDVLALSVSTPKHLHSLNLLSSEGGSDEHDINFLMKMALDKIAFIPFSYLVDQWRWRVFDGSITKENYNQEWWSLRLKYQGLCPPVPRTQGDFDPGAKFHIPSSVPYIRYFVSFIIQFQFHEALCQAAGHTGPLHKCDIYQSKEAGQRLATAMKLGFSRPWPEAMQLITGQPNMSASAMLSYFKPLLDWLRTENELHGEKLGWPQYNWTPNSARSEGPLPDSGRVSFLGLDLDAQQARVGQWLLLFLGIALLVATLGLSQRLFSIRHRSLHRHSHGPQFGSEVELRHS

The term IC50 denotes the point on the concentration scale where inhibition reaches its midpoint. With “IPP: known ACE inhibiting tripeptide, kappa-casein f108-110; chemically synthesized IPP used as internal reference”, the concentration for half-maximal inhibition (IC50) in the experiment with ACE [1] was 7.1 µM; in the experiment on ACE [2] (chemically synthesized peptides, Hip-His-Leu, pH 8.3, 37° C., 30 min, read-out: IC50 value Modified Matsui assay) it was 2 µM; with ACE [2] (read-out: IC50 value in Modified Matsui test) it was 2 µM; with ACE [3] it was 5 µM.

As to “LPP: known ACE inhibiting tripeptide, β-casein f151-153 (UniProt P02666 166-168, looked up, fragment)”, the IC50 in the experiment with ACE [3] was 9.6 µM.
